Experimental data: the NIST ThermoML archive (doi:10.1016/j.jct.2016.09.030)
± gives the expanded uncertainty stated by the source.

Tests used:
[1] = xn = mol fraction of the nth substance listed; details: 100 kPa, Liquid, x2 = 0; for viscosity: Concentric cylinders viscometry; for mass density: Vibrating tube method
[2] = refractive index (Na D-line) (dimensionless); xn = mol fraction of the nth substance listed; details: 100 kPa, Liquid, Standard Abbe refractometry, x2 = 0
[3] = 100 kPa, Liquid; for viscosity: Concentric cylinders viscometry; for mass density: Vibrating tube method
[4] = refractive index (Na D-line) (dimensionless); details: 100 kPa, Liquid, Standard Abbe refractometry

CC(C)CO [2-methyl-1-propanol] + CCCCCCCC(=O)OCC
Details	mass density, [1] [kg/m3]	refractive index, [2]	viscosity, [1] [mPa·s]
288.15 K	805.88 ± 1.6	1.3978 ± 0.0028	4.829 ± 0.039
293.15 K	802.03 ± 1.6	1.3958 ± 0.0028	4.052 ± 0.033
298.15 K	798.16 ± 1.6	1.3937 ± 0.0028	3.431 ± 0.028
303.15 K	794.25 ± 1.6	1.3916 ± 0.0028	2.923 ± 0.024
308.15 K	790.31 ± 1.6	1.3895 ± 0.0028	2.505 ± 0.021
313.15 K	786.31 ± 1.6	1.3874 ± 0.0028	2.161 ± 0.018
318.15 K	782.26 ± 1.6	1.3853 ± 0.0028	1.875 ± 0.016
323.15 K	778.14 ± 1.6	1.383 ± 0.0028	1.652 ± 0.014

CC(C)CO [2-methyl-1-propanol] + CCOC(=O)CCC(=O)OCC
Details	mass density, [1] [kg/m3]	refractive index, [2]	viscosity, [1] [mPa·s]
288.15 K	805.88 ± 1.6	1.3978 ± 0.0028	4.829 ± 0.039
293.15 K	802.03 ± 1.6	1.3958 ± 0.0028	4.052 ± 0.033
298.15 K	798.16 ± 1.6	1.3937 ± 0.0028	3.431 ± 0.028
303.15 K	794.25 ± 1.6	1.3916 ± 0.0028	2.923 ± 0.024
308.15 K	790.31 ± 1.6	1.3895 ± 0.0028	2.505 ± 0.021
313.15 K	786.31 ± 1.6	1.3874 ± 0.0028	2.161 ± 0.018
318.15 K	782.26 ± 1.6	1.3853 ± 0.0028	1.875 ± 0.016
323.15 K	778.14 ± 1.6	1.383 ± 0.0028	1.652 ± 0.014

CC(C)CCO [3-methylbutan-1-ol] + CCCCCCCC(=O)OCC
Details	mass density, [1] [kg/m3]	refractive index, [2]	viscosity, [1] [mPa·s]
288.15 K	812.29 ± 1.6	1.4087 ± 0.0028	5.057 ± 0.047
293.15 K	808.58 ± 1.6	1.4067 ± 0.0028	4.287 ± 0.04
298.15 K	804.84 ± 1.6	1.4047 ± 0.0028	3.671 ± 0.035
303.15 K	801.09 ± 1.6	1.4026 ± 0.0028	3.155 ± 0.03
308.15 K	797.31 ± 1.6	1.4005 ± 0.0028	2.73 ± 0.026
313.15 K	793.51 ± 1.6	1.3985 ± 0.0028	2.375 ± 0.023
318.15 K	789.67 ± 1.6	1.3964 ± 0.0028	2.076 ± 0.02
323.15 K	785.79 ± 1.6	1.3943 ± 0.0028	1.841 ± 0.018

CC(C)CCO [3-methylbutan-1-ol] + CCOC(=O)CCC(=O)OCC
Details	mass density, [1] [kg/m3]	refractive index, [2]	viscosity, [1] [mPa·s]
288.15 K	812.29 ± 1.6	1.4087 ± 0.0028	5.057 ± 0.047
293.15 K	808.58 ± 1.6	1.4067 ± 0.0028	4.287 ± 0.04
298.15 K	804.84 ± 1.6	1.4047 ± 0.0028	3.671 ± 0.035
303.15 K	801.09 ± 1.6	1.4026 ± 0.0028	3.155 ± 0.03
308.15 K	797.31 ± 1.6	1.4005 ± 0.0028	2.73 ± 0.026
313.15 K	793.51 ± 1.6	1.3985 ± 0.0028	2.375 ± 0.023
318.15 K	789.67 ± 1.6	1.3964 ± 0.0028	2.076 ± 0.02
323.15 K	785.79 ± 1.6	1.3943 ± 0.0028	1.841 ± 0.018

CCCCCCCC(=O)OCC [ethyl octanoate]
Details	mass density, [3] [kg/m3]	refractive index, [4]	viscosity, [3] [mPa·s]
288.15 K	870.88 ± 1.7	1.4199 ± 0.0028	1.686 ± 0.022
293.15 K	866.58 ± 1.7	1.4177 ± 0.0028	1.537 ± 0.02
298.15 K	862.28 ± 1.7	1.4155 ± 0.0028	1.41 ± 0.019
303.15 K	857.98 ± 1.7	1.4132 ± 0.0028	1.298 ± 0.017
308.15 K	853.68 ± 1.7	1.411 ± 0.0028	1.2 ± 0.016
313.15 K	849.37 ± 1.7	1.4088 ± 0.0028	1.118 ± 0.015
318.15 K	845.06 ± 1.7	1.4066 ± 0.0028	1.035 ± 0.014
323.15 K	840.74 ± 1.7	1.4044 ± 0.0028	0.9708 ± 0.013
